Test results published in PubChem BioAssay (NCI).
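Protocol summary: plate cells (96-well), add compound at 5 concentrations, incubate 48 h, interpolate endpoints linearly. The concentration for 50% growth inhibition is given as GI50. At the TGI there is no net growth.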

What was measured:
Experiment in all cases: growth of human tumour cells (NCI), 48 h
SNB-19 CNS = test system: SNB-19 CNS
HCT-116 colon = test system: HCT-116 colon
NCI-H522 lung = test system: NCI-H522 lung
NCI-H23 lung = test system: NCI-H23 lung
NCI-H226 lung = test system: NCI-H226 lung
OVCAR-5 ovarian = test system: OVCAR-5 ovarian
SK-MEL-5 melanoma = test system: SK-MEL-5 melanoma
HOP-92 NSCLC = test system: HOP-92 NSCLC
U251 CNS = test system: U251 CNS
SR leukemia = test system: SR leukemia

## CC(=O)OCCC(O[Si](c1ccccc1)(c1ccccc1)C(C)(C)C)C(C)(C)O (stereo unspecified)
SNB-19 CNS
  TGI: > 100 µM
HCT-116 colon
  TGI: 31.2 µM
NCI-H522 lung
  TGI: 46.8 µM
NCI-H23 lung
  TGI: 68.7 µM
NCI-H226 lung
  TGI: 36 µM
OVCAR-5 ovarian
  TGI: > 100 µM
SK-MEL-5 melanoma
  TGI: > 100 µM
HOP-92 NSCLC
  TGI: 65.1 µM
U251 CNS
  TGI: > 100 µM

## CCOC(=O)C[C@@]12CCCNC1(C)CCc1ccccc12 (stereo partly specified)
SNB-19 CNS
  TGI: > 100 µM
HCT-116 colon
  TGI: > 100 µM
NCI-H226 lung
  TGI: > 100 µM
SK-MEL-5 melanoma
  TGI: > 100 µM
U251 CNS
  TGI: > 100 µM

## CC(C)(C)[Si](C)(C)OCC1OC(n2cnc3c(N)ncnc32)C(O)C1O (stereo unspecified)
SR leukemia
  TGI: > 100 µM
SNB-19 CNS
  TGI: > 100 µM
HCT-116 colon
  TGI: > 100 µM
NCI-H522 lung
  TGI: > 100 µM
NCI-H23 lung
  TGI: > 100 µM
NCI-H226 lung
  TGI: > 100 µM
OVCAR-5 ovarian
  TGI: > 100 µM
SK-MEL-5 melanoma
  TGI: 89.5 µM
U251 CNS
  TGI: > 100 µM

## O=C1C(c2ccccc2)=C(c2ccccc2)[C@H](c2ccccc2)[C@]1(Cc1nnn(-c2ccc([N+](=O)[O-])cc2)c1N1CCOCC1)c1ccccc1
SNB-19 CNS
  TGI: > 37.5 µM
HCT-116 colon
  TGI: > 37.5 µM
NCI-H23 lung
  TGI: > 37.5 µM
SK-MEL-5 melanoma
  TGI: > 37.5 µM
HOP-92 NSCLC
  TGI: 2.25 µM
U251 CNS
  TGI: > 37.5 µM

## CC(C)(C)c1cc(CCC(=O)Nc2ccc(Cl)cc2Cl)nc(N)n1
SR leukemia
  TGI: > 100 µM
SNB-19 CNS
  TGI: > 100 µM
HCT-116 colon
  TGI: > 100 µM
NCI-H23 lung
  TGI: > 100 µM
NCI-H226 lung
  TGI: > 100 µM
OVCAR-5 ovarian
  TGI: > 100 µM
SK-MEL-5 melanoma
  TGI: > 100 µM
HOP-92 NSCLC
  TGI: > 100 µM
U251 CNS
  TGI: > 100 µM

## CCOCNc1ccc(N2C(=O)/C(=C/c3ccc(N(CC)CC)cc3)N=C2c2ccccc2)cc1
SR leukemia
  GI50: 6.5 µM
  TGI: > 100 µM
SNB-19 CNS
  GI50: 7.57 µM
  TGI: 55.3 µM
HCT-116 colon
  GI50: 2.4 µM
  TGI: 53.4 µM
NCI-H23 lung
  GI50: 27.3 µM
  TGI: > 100 µM
NCI-H226 lung
  GI50: 8.24 µM
  TGI: > 100 µM
OVCAR-5 ovarian
  GI50: > 100 µM
  TGI: > 100 µM
SK-MEL-5 melanoma
  GI50: 22.9 µM
  TGI: > 100 µM
HOP-92 NSCLC
  GI50: 2.25 µM
  TGI: 12 µM
U251 CNS
  GI50: 3.85 µM
  TGI: 33 µM

## O=[N+]([O-])C1C2C=CC(C2)[C@H]1c1ccc(Cl)cc1Cl (stereo partly specified)
SR leukemia
  TGI: > 100 µM
SNB-19 CNS
  TGI: > 100 µM
HCT-116 colon
  TGI: > 100 µM
NCI-H23 lung
  TGI: > 100 µM
NCI-H226 lung
  TGI: > 100 µM
OVCAR-5 ovarian
  TGI: > 100 µM
SK-MEL-5 melanoma
  TGI: 24.7 µM
HOP-92 NSCLC
  TGI: > 100 µM
U251 CNS
  TGI: > 100 µM

## C/C(=N\n1c(N)c(C#N)c(-c2ccc(Cl)cc2)c(C#N)c1=O)c1ccncc1
SR leukemia
  GI50: 3.3 µM
  TGI: > 100 µM
SNB-19 CNS
  GI50: 10.6 µM
  TGI: > 100 µM
HCT-116 colon
  GI50: 11.9 µM
  TGI: 31.7 µM
NCI-H23 lung
  GI50: 11 µM
  TGI: 45.7 µM
NCI-H226 lung
  GI50: 18.5 µM
  TGI: 54.5 µM
OVCAR-5 ovarian
  GI50: 60.4 µM
  TGI: > 100 µM
SK-MEL-5 melanoma
  GI50: 21.8 µM
  TGI: > 100 µM
HOP-92 NSCLC
  GI50: 0.61 µM
  TGI: 4.17 µM
U251 CNS
  GI50: 19.6 µM
  TGI: 44.6 µM

## Cc1ccc(-n2c3c(c4c(CN5CCOCC5)c(O)ccc42)CCc2ccccc2C3=O)cc1
SNB-19 CNS
  GI50: > 100 µM
  TGI: > 100 µM
HCT-116 colon
  GI50: > 100 µM
  TGI: > 100 µM
NCI-H522 lung
  GI50: 34.5 µM
  TGI: > 100 µM
NCI-H23 lung
  GI50: > 100 µM
  TGI: > 100 µM
NCI-H226 lung
  GI50: 78.1 µM
  TGI: > 100 µM
OVCAR-5 ovarian
  GI50: > 100 µM
  TGI: > 100 µM
SK-MEL-5 melanoma
  GI50: 76 µM
  TGI: > 100 µM
HOP-92 NSCLC
  GI50: 68.2 µM
  TGI: > 100 µM
U251 CNS
  GI50: > 100 µM
  TGI: > 100 µM

## CC1(C)OC(COCCOCCCCCO)C(COCCOCCCCCO)O1 (stereo unspecified)
SR leukemia
  TGI: > 100 µM
SNB-19 CNS
  TGI: > 100 µM
HCT-116 colon
  TGI: > 100 µM
NCI-H522 lung
  TGI: > 100 µM
NCI-H23 lung
  TGI: > 100 µM
NCI-H226 lung
  TGI: > 100 µM
OVCAR-5 ovarian
  TGI: > 100 µM
SK-MEL-5 melanoma
  TGI: > 100 µM
U251 CNS
  TGI: > 100 µM

## CC12OC(C(=O)C13CCC3)C1C(=O)c3ccccc3C(=O)C12 (stereo unspecified)
SNB-19 CNS
  GI50: > 100 µM
  TGI: > 100 µM
HCT-116 colon
  GI50: > 100 µM
  TGI: > 100 µM
NCI-H522 lung
  GI50: > 100 µM
  TGI: > 100 µM
NCI-H23 lung
  GI50: 38 µM
  TGI: > 100 µM
NCI-H226 lung
  GI50: 38.4 µM
  TGI: > 100 µM
OVCAR-5 ovarian
  GI50: > 100 µM
  TGI: > 100 µM
HOP-92 NSCLC
  GI50: > 100 µM
  TGI: > 100 µM
U251 CNS
  GI50: 55 µM
  TGI: > 100 µM

## COc1cc2cccc(N=Cc3c(Br)ccc(OC)c3OC(C)C)c2cc1OC
SNB-19 CNS
  TGI: > 100 µM
HCT-116 colon
  TGI: 96 µM
NCI-H522 lung
  TGI: > 100 µM
NCI-H23 lung
  TGI: > 100 µM
OVCAR-5 ovarian
  TGI: > 100 µM
SK-MEL-5 melanoma
  TGI: > 100 µM
U251 CNS
  TGI: > 100 µM

## Cc1nnc(N=Nc2c(O)[nH]c3ccccc23)n1N
SR leukemia
  TGI: > 100 µM
SNB-19 CNS
  TGI: > 100 µM
HCT-116 colon
  TGI: > 100 µM
NCI-H522 lung
  TGI: > 100 µM
NCI-H23 lung
  TGI: > 100 µM
NCI-H226 lung
  TGI: > 100 µM
OVCAR-5 ovarian
  TGI: > 100 µM
SK-MEL-5 melanoma
  TGI: > 100 µM
U251 CNS
  TGI: > 100 µM

## COC(=O)c1cc2c3c(ccc2[nH]1)N(C(=O)c1cc2c4c(ccc2[nH]1)N(C(=O)c1cc2c5c(ccc2[nH]1)N(C(N)=O)CC5)CC4)CC3
SR leukemia
  TGI: > 100 µM
SNB-19 CNS
  TGI: 12.6 µM
HCT-116 colon
  TGI: > 100 µM
NCI-H23 lung
  TGI: > 100 µM
NCI-H226 lung
  TGI: 5.76 µM
OVCAR-5 ovarian
  TGI: > 100 µM
SK-MEL-5 melanoma
  TGI: 8.68 µM
HOP-92 NSCLC
  TGI: 7.31 µM
U251 CNS
  TGI: > 21.9 µM

## COc1nc2c(c(O)c(C)c(=O)n2OC2OC(COC(C)=O)C(OC(C)=O)C(OC(C)=O)C2OC(C)=O)c(=O)n1C (stereo unspecified)
SR leukemia
  TGI: > 100 µM
SNB-19 CNS
  TGI: > 100 µM
HCT-116 colon
  TGI: > 100 µM
NCI-H522 lung
  TGI: > 100 µM
NCI-H23 lung
  TGI: > 100 µM
NCI-H226 lung
  TGI: > 100 µM
OVCAR-5 ovarian
  TGI: > 100 µM
SK-MEL-5 melanoma
  TGI: > 100 µM
U251 CNS
  TGI: > 100 µM

## C=C(CNCCc1ccc(O)cc1)[C@@H]1CC[C@]2(CO)CC[C@]3(C)[C@H](CC[C@@H]4[C@@]5(C)CCC(N)C(C)(C)[C@@H]5CC[C@]43C)[C@@H]12 (stereo partly specified)
SNB-19 CNS
  GI50: 1.22 µM
  TGI: 2.53 µM
NCI-H522 lung
  GI50: 1.76 µM
  TGI: 3.42 µM
NCI-H226 lung
  GI50: 1.83 µM
  TGI: 3.78 µM
SK-MEL-5 melanoma
  GI50: 1.69 µM
  TGI: 3.09 µM
HOP-92 NSCLC
  GI50: 1.12 µM
  TGI: 2.49 µM
U251 CNS
  GI50: 0.917 µM
  TGI: 2.12 µM

## C[C@@]12CCCC(=O)N1[C@@H](CO)C(c1ccccc1)O2 (stereo partly specified)
SNB-19 CNS
  TGI: > 100 µM
HCT-116 colon
  TGI: > 100 µM
NCI-H23 lung
  TGI: > 100 µM
OVCAR-5 ovarian
  TGI: > 100 µM
SK-MEL-5 melanoma
  TGI: > 100 µM
HOP-92 NSCLC
  TGI: > 100 µM
U251 CNS
  TGI: > 100 µM

## CCCn1cnc2c(SCc3ccccc3)nc(N)nc21
SR leukemia
  GI50: 49.6 µM
  TGI: > 100 µM
SNB-19 CNS
  GI50: > 100 µM
  TGI: > 100 µM
HCT-116 colon
  GI50: 63 µM
  TGI: > 100 µM
NCI-H522 lung
  GI50: > 100 µM
  TGI: > 100 µM
NCI-H23 lung
  GI50: > 100 µM
  TGI: > 100 µM
NCI-H226 lung
  GI50: 30.5 µM
  TGI: > 100 µM
OVCAR-5 ovarian
  GI50: > 100 µM
  TGI: > 100 µM
SK-MEL-5 melanoma
  GI50: 21.2 µM
  TGI: > 100 µM
U251 CNS
  GI50: 41.4 µM
  TGI: > 100 µM

## NC(N)=N/N=C/c1c(-c2ccc(Cl)c([N+](=O)[O-])c2)nc2n1CCS2
SNB-19 CNS
  GI50: 4.67 µM
  TGI: > 100 µM
HCT-116 colon
  GI50: 1.62 µM
  TGI: 2.97 µM
NCI-H522 lung
  GI50: 35.6 µM
  TGI: > 100 µM
NCI-H23 lung
  GI50: 14.3 µM
  TGI: 27.3 µM
NCI-H226 lung
  GI50: 4.24 µM
  TGI: 24 µM
OVCAR-5 ovarian
  GI50: 14.6 µM
  TGI: 27.8 µM
SK-MEL-5 melanoma
  GI50: 15 µM
  TGI: 36.7 µM
